Measurements: patent US9775881B2, “Methods of treating mesothelioma by administration of compounds comprising FGFR1 ECD” (Five Prime Therapeutics, Inc., priority 2013, dated 2017)

Tests used:
Type in all cases: in vivo, mouse
SK-Hep-1 xenograft model [1] = assay: SK-Hep-1 xenograft model, FGFR1-ECD.339-Fc alone and with sorafenib; conditions: 61 days, FGFR1-ECD.339-Fc 15 mg/kg IP twice per week (p=0.0036), sorafenib 20 mg/kg oral five times per week (p<0.0001)
Procedure: (§1) The cells were implanted subcutaneously over the right flank of the mice at 5×10^6 cells/100 μl/mouse.

HLF xenograft model = assay: HLF xenograft model, FGFR1-ECD.339-Fc alone and with sorafenib; conditions: 24 days, FGFR1-ECD.339-Fc 15 mg/kg IP twice per week (p=0.0175), sorafenib 20 mg/kg oral five times per week (p=0.0020)
Procedure: Six week old female CB17 SCID mice were purchased from Charles River Laboratories (Wilmington, Mass.) and were acclimated for 1 week before the start of the study. […] The cells were cultured for three passages in complete growth medium to expand for implantation. HLF cells were cultured in Dulbecco's Modified Eagle Medium (DMEM) supplemented with 10% Fetal Bovine Serum (FBS) and Antibiotic-Antimycotic solution. Cells were grown at 37° C. in a humidified atmosphere with 5% CO2.
The cells were implanted subcutaneously over the right flank of the mice at 2.5×10^6 cells/100 μl/mouse. Mice were monitored twice weekly following cell implantation for tumor growth. […]
FGFR1-ECD.339-Fc or albumin as a negative control, was dosed at 15 mg/kg via intraperitoneal (IP) injection twice per week. […] Upon initiation of therapy, tumor sizes were measured in each mouse twice weekly. The length and width of each tumor was measured using calipers and the tumor size calculated according to the formula above. […]
Comparisons of tumor volume as a consequence of treatment with FGFR1-ECD.339-Fc and/or sorafenib were determined to be statistically significant if P<0.05. P-values were calculated using unpaired, two-tailed t-test analyses of the calculated tumor volumes on day 24 following initiation of treatment.

HepG2 xenograft model [2] = assay: HepG2 xenograft model, FGFR1-ECD.339-Fc alone and with sorafenib
Procedure: FGFR1-ECD.339-Fc as a single agent, and in combination with sorafenib, was also tested in a HepG2 xenograft model.

Huh7 xenograft model = assay: Huh7 xenograft model, FGFR1-ECD.339-Fc single agent; conditions: 15 mg/kg IP twice per week
Procedure: (§2) Six week old female CB17 SCID mice were purchased from Charles River Laboratories (Wilmington, Mass.) and were acclimated for 1 week before the start of the study. Human hepatocellular carcinoma (HCC) cell lines HepG2 and Hep3B were purchased from ATCC (Manassas, Va.) and Huh7 was purchased from JCRB (Japanese Collection of Research Bioresources). The cells were cultured for three passages in complete growth medium to expand for implantation. HepG2 and Hep3B cells were cultured in Dulbecco's Modified Eagle Medium (DMEM) supplemented with 10% Fetal Bovine Serum (FBS), 2 mM L-Glutamine, and Penicillin-Streptomycin antibiotic solution. […]
(§3) When the cultured cells reached 85-90% confluence, cells were harvested and resuspended in cold Ca^2+ and Mg^2+ free phosphate buffered saline (PBS) containing 50% Matrigel. […] Mice were monitored twice weekly following cell implantation for tumor growth.
(§4) FGFR1-ECD.339-Fc (FP-1039) or albumin as a negative control was dosed at 15 mg/kg via intraperitoneal injection twice per week. […] Upon initiation of therapy, tumor sizes were measured in each mouse twice weekly. The length and width of each tumor was measured using calipers and the tumor size calculated according to the formula Tumor size (mm^3)=[…]. […]
(§5) Comparisons of tumor volume as a consequence of treatment with FP-1039 were determined to be statistically significant if P<0.05. […]

HepG2 xenograft model [3] = assay: HepG2 xenograft model, FGFR1-ECD.339-Fc single agent; conditions: 15 mg/kg IP twice per week
Procedure: as §2, §3, §4, §5

ACHN xenograft model = assay: ACHN xenograft model, FGFR1-ECD.339-Fc alone and with pazopanib
Procedure: as §1

A498 xenograft model = assay: A498 xenograft model, FGFR1-ECD.339-Fc alone and with pazopanib; conditions: FGFR1-ECD.339-Fc 15 mg/kg IP twice per week, pazopanib 100 mg/kg oral daily
Procedure: as §1

Caki-2 xenograft model = assay: Caki-2 xenograft model, FGFR1-ECD.339-Fc alone and with pazopanib; conditions: FGFR1-ECD.339-Fc 15 mg/kg IP twice per week, pazopanib 100 mg/kg oral daily
Procedure: as §1

Hep3B xenograft model = assay: Hep3B xenograft model, FGFR1-ECD.339-Fc single agent; conditions: 15 mg/kg IP twice per week
Procedure: as §2, §3, §4, §5

MSTO-211H xenograft = assay: MSTO-211H mesothelioma tumor xenograft model, dose response; conditions: SCID mice, day 29
Procedure: Five to six week old female SCID mice were implanted subcutaneously with MSTO-211H cells (ATCC, Manassas, Va.) at 5×10^6 cells/mouse and tumor-bearing mice were randomized into 3 groups (n=10/group) when tumors reached ˜150-225 mm^3 in size. Mice were treated with FGFR1-ECD.339-Fc at two different concentrations (5.12 or 25.6 mg/kg) three times a week (t.i.w.) for 29 days. Tumor size and body weights were measured twice a week.

[4] = tested on: NCI-H226 (mesothelioma) xenograft; assay: Blood vessel density by MECA-32 IHC in NCI-H226 xenograft tumors; conditions: NCI-H226 tumors harvested day 30; 1.024, 5.12 or 25.6 mg/kg t.i.w. for 29 days
Procedure: Endothelial cell immunohistochemical (IHC) staining using a rat anti-mouse pan-endothelial cell antigen antibody (MECA-32; BD Biosciences, Franklin Lakes, N.J.) was performed on tumors from a NCI-H226 (mesothelioma) xenograft study. Tumor-bearing mice were treated with either vehicle (0.9% saline) or increasing doses of FGFR1-ECD.339-Fc (1.024, 5.12, or 25.6 mg/kg) three times a week (t.i.w.) for 29 days, as described above. Tumors were harvested on day 30. Quantification of MECA-32 IHC staining was analyzed by measuring the number of blood vessels/tissue area.

NCI-H226 xenograft = assay: NCI-H226 mesothelioma tumor xenograft model, dose response; conditions: SCID mice, day 29
Procedure: Seven week old female SCID mice (Taconic, Hudson, N.Y.) were implanted subcutaneously with NCI-H226 cells (ATCC, Manassas, Va.) at 5×10^6 cells/mouse and tumor-bearing mice were randomized into 4 groups (n=8/group) when tumors reached ˜176-277 mm^3 in size. Mice were treated with FGFR1-ECD.339-Fc at three different concentrations (1.024, 5.12 or 25.6 mg/kg) three times a week (t.i.w.) for 29 days. Tumor size and body weights were measured twice a week.

SK-Hep-1 xenograft model [5] = assay: SK-Hep-1 xenograft model, FGFR1-ECD.339-Fc alone and with pazopanib; conditions: 15 mg/kg IP twice per week, p=0.0076
Procedure: as §1

786-0 xenograft model = assay: 786-0 xenograft model, FGFR1-ECD.339-Fc alone and with pazopanib; conditions: FGFR1-ECD.339-Fc 15 mg/kg IP twice per week, pazopanib 100 mg/kg oral daily
Procedure: as §1

Molecule | response of xenograft model to single therapy (tumor volume) (SK-Hep-1 xenograft model [1]) | response of xenograft model to single therapy (tumor volume) (HLF xenograft model) | single agent effect on tumor growth (HepG2 xenograft model [2]) | single agent efficacy (tumor volume) (Huh7 xenograft model) | single agent efficacy (tumor volume) (HepG2 xenograft model [3]) | tumor growth inhibition (ACHN xenograft model; CB17 SCID mice, 15 mg/kg IP twice per week, day 63, p<0.0001) [%] | response of xenograft model to single therapy (tumor volume) (ACHN xenograft model; FGFR1-ECD.339-Fc 15 mg/kg IP twice per week) | response of xenograft model to single therapy (tumor volume) (A498 xenograft model) | response of xenograft model to single therapy (tumor volume) (Caki-2 xenograft model) | single agent efficacy (tumor volume) (Hep3B xenograft model) | tumor growth inhibition (TGI) (MSTO-211H xenograft; 5.12 mg/kg three times a week) [%] | tumor growth inhibition (TGI) (MSTO-211H xenograft; 25.6 mg/kg three times a week) [%] | blood vessel density (MECA-32 IHC), inner region [4] | blood vessel density (MECA-32 IHC), outer region [4] | blood vessel density (MECA-32 IHC), outer+inner region (whole tumor mass) [4] | tumor growth inhibition (TGI) (NCI-H226 xenograft; 1.024 mg/kg three times a week) [%] | tumor growth inhibition (TGI) (NCI-H226 xenograft; 5.12 mg/kg three times a week) [%] | tumor growth inhibition (TGI) (NCI-H226 xenograft; 25.6 mg/kg three times a week) [%] | response of xenograft model to single therapy (tumor volume) (SK-Hep-1 xenograft model [5]) | response of xenograft model to single therapy (tumor volume) (786-0 xenograft model)
CNC(=O)c1cc(Oc2ccc(NC(=O)Nc3ccc(Cl)c(C(F)(F)F)c3)cc2)ccn1 [sorafenib, reference compound] | responded | responded | inhibits tumor growth | – | – | – | – | – | – | – | – | – | – | – | – | – | – | – | – | –
FGFR1-ECD.339-Fc: human FGFR1 extracellular domain ending at amino acid 339 fused to Fc; SEQ ID NO: 6 (mature form) or SEQ ID NO: 5 (with signal peptide) | responded | responded | not effective as a single agent | no single agent efficacy | no single agent efficacy | 51 | responded | little response | little response | no single agent efficacy | 20.3 | 50.1 | no significant differences | dose-dependent and a statistically-significant reduction | dose-dependent and a statistically-significant reduction | 16.2 | 56.8 | 77.8 | responded | did not respond
